Seven compounds from patent US12371454B2, “Cyclic peptide compound having Kras inhibitory action” (priority 2019, dated 2025) can be followed below.

In this assay the test system is Human pancreatic cancer cell line AsPC-1. Kind of assay: Measurement of AsPC-1 cell growth inhibition (AsPC-1 CGI). The class given is cell-based. Particulars: 96 h. Put shortly: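 AsPC-1 cells in 15% FBS RPMI-1640 were exposed to test compound for 96 hours at 37° C, with CellTiter-Glo as endpoint.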

One may read the IC50 as the point on the concentration scale where inhibition reaches its midpoint.

Positions of bridges follow the written chain, without caps; N, C: chain ends. Non-standard residues stand in square brackets, D forms with d. Residues, ends and D or L forms follow the SMILES beside them. *: point of attachment. hPhe(3-F,4-CF3) = N[C@@H](CCc1ccc(C(F)(F)F)c(F)c1)C(=O)O; NMeCha = CN[C@@H](CC1CCCCC1)C(=O)O; cisHyp = O=C(O)[C@@H]1C[C@H](O)CN1; Hyp = O=C(O)[C@@H]1C[C@@H](O)CN1; NMeD = CN[C@@H](CC(=O)O)C(=O)O; Benzyl(4-Cl) = Clc1ccc(C*)cc1; NMeL = CN[C@@H](CC(C)C)C(=O)O; Piperidide = C1CCN(*)CC1; X45 = FC(F)Oc1ccc(C*)cc1; Ac5c = NC1(C(=O)O)CCCC1; X30 = COc1cccc(C*)c1; Meb = Cc1ccc(C*)cc1; X27 = Clc1ccccc1C*; Sar = CNCC(=O)O Where only a bound is given, the exact number is not on record here.

`CC[C@H](C)[C@@H]1NC(=O)[C@H](CC(C)C)N(C)C(=O)C[C@@H](C(=O)N2CCCCC2)N(C)C(=O)[C@H](CC(C)C)N(C)C(=O)C2(CCCC2)NC(=O)[C@@H]2C[C@@H](OCc3ccc(OC(F)F)cc3)CN2C(=O)[C@H](CCc2ccc(C(F)(F)F)c(F)c2)NC(=O)CN(C)C(=O)[C@H](CC2CCCCC2)N(C)C(=O)CN(C)C(=O)CN(C)C1=O` [Compound 2128] ([NMeL]I[Sar][Sar][NMeCha][Sar][hPhe(3-F,4-CF3)][Hyp](X45)[Ac5c][NMeL][NMeD]-Piperidide; lactam N-11) yielded a half-maximal inhibitory concentration (IC50) of more than 500 nM. In turn, `CC[C@H](C)[C@@H]1NC(=O)[C@H](CC(C)C)N(C)C(=O)C[C@@H](C(=O)N2CCCCC2)N(C)C(=O)[C@H](CC(C)C)N(C)C(=O)C2(CCCC2)NC(=O)[C@@H]2C[C@H](OCc3ccc(Cl)cc3)CN2C(=O)[C@H](CCc2ccc(C(F)(F)F)c(F)c2)NC(=O)CN(C)C(=O)[C@H](CC2CCCCC2)N(C)C(=O)CN(C)C(=O)CN(C)C1=O` [Compound 2129] ([NMeL]I[Sar][Sar][NMeCha][Sar][hPhe(3-F,4-CF3)][cisHyp](Benzyl(4-Cl))[Ac5c][NMeL][NMeD]-Piperidide; lactam N-11) displayed an IC50 of more than 500 nM. As for `CC[C@H](C)[C@@H]1NC(=O)[C@H](CC(C)C)N(C)C(=O)C[C@@H](C(=O)N2CCCCC2)N(C)C(=O)[C@H](CC(C)C)N(C)C(=O)C2(CCCC2)NC(=O)[C@@H]2C[C@@H](OCc3ccc(C)cc3)CN2C(=O)[C@H](CCc2ccc(C(F)(F)F)c(F)c2)NC(=O)CN(C)C(=O)[C@H](CC2CCCCC2)N(C)C(=O)CN(C)C(=O)CN(C)C1=O` [Compound 2130] ([NMeL]I[Sar][Sar][NMeCha][Sar][hPhe(3-F,4-CF3)][Hyp](Meb)[Ac5c][NMeL][NMeD]-Piperidide; lactam N-11), the IC50 is more than 500 nM. Under `CC[C@H](C)[C@@H]1NC(=O)[C@H](CC(C)C)N(C)C(=O)C[C@@H](C(=O)N2CCCCC2)N(C)C(=O)[C@H](CC(C)C)N(C)C(=O)C2(CCCC2)NC(=O)[C@@H]2C[C@@H](OCc3cccc(OC)c3)CN2C(=O)[C@H](CCc2ccc(C(F)(F)F)c(F)c2)NC(=O)CN(C)C(=O)[C@H](CC2CCCCC2)N(C)C(=O)CN(C)C(=O)CN(C)C1=O` [Compound 2131] ([NMeL]I[Sar][Sar][NMeCha][Sar][hPhe(3-F,4-CF3)][Hyp](X30)[Ac5c][NMeL][NMeD]-Piperidide; lactam N-11) stands 100 to 500 nM; under `CC[C@H](C)[C@@H]1NC(=O)[C@H](CC(C)C)N(C)C(=O)C[C@@H](C(=O)N2CCCCC2)N(C)C(=O)[C@H](CC(C)C)N(C)C(=O)C2(CCCC2)NC(=O)[C@@H]2C[C@H](OCc3ccccc3Cl)CN2C(=O)[C@H](CCc2ccc(C(F)(F)F)c(F)c2)NC(=O)CN(C)C(=O)[C@H](CC2CCCCC2)N(C)C(=O)CN(C)C(=O)CN(C)C1=O` [Compound 2132] ([NMeL]I[Sar][Sar][NMeCha][Sar][hPhe(3-F,4-CF3)][cisHyp](X27)[Ac5c][NMeL][NMeD]-Piperidide; lactam N-11), more than 500 nM; under `CC[C@H](C)[C@@H]1NC(=O)[C@H](CC(C)C)N(C)C(=O)C[C@@H](C(=O)N2CCCCC2)N(C)C(=O)[C@H](CC(C)C)N(C)C(=O)C2(CCCC2)NC(=O)[C@@H]2C[C@H](OCc3ccc(OC(F)F)cc3)CN2C(=O)[C@H](CCc2ccc(C(F)(F)F)c(F)c2)NC(=O)CN(C)C(=O)[C@H](CC2CCCCC2)N(C)C(=O)CN(C)C(=O)CN(C)C1=O` [Compound 2135] ([NMeL]I[Sar][Sar][NMeCha][Sar][hPhe(3-F,4-CF3)][cisHyp](X45)[Ac5c][NMeL][NMeD]-Piperidide; lactam N-11), more than 500 nM.

In turn, `CC[C@H](C)[C@@H]1NC(=O)[C@H](CC(C)C)N(C)C(=O)C[C@@H](C(=O)N2CCCCC2)N(C)C(=O)[C@H](CC(C)C)N(C)C(=O)C2(CCCC2)NC(=O)[C@@H]2C[C@H](OCc3cccc(OC)c3)CN2C(=O)[C@H](CCc2ccc(C(F)(F)F)c(F)c2)NC(=O)CN(C)C(=O)[C@H](CC2CCCCC2)N(C)C(=O)CN(C)C(=O)CN(C)C1=O` [Compound 2136] ([NMeL]I[Sar][Sar][NMeCha][Sar][hPhe(3-F,4-CF3)][cisHyp](X30)[Ac5c][NMeL][NMeD]-Piperidide; lactam N-11) showed an IC50 of more than 500 nM.
